In patent US6964772B1, “Chitosan-xanthan based polyionic hydrogels for stabilization and controlled release of vitamins” (Kemestrie Inc., priority 1998, dated 2005):

Experiment: Determination of the Vitamin C stability in the cream base at 45° C.
Assay type: physicochemical
Conditions: cream with 5-25 wt % Vitamin C, after 30 days at 45° C., protected from light
Procedure: The method consists of introducing 20 to 30 mg of freeze-dried CHITOXAN™ loaded with Vitamin C in a 50 ml centrifuge tube together with 40 ml of the extraction solvent. The mixture is magnetically stirred for 60 minutes. The suspension formed is centrifuged (4000 rpm) and the supernatant is analysed. All operations are done in absence of light.
This determination requires the establishment of a calibration curve at a maximum absorption wavelength using a UV-vis spectrophotometer. A standard is prepared with the same solution (and solvent) initially used to introduce the Vitamin C within the CHITOXAN™. Experimentation has shown an absorption maximum at 243 nm for Vitamin C at 98% purity obtained from ALDRICH.
The calibration curve is constructed at 243 nm as follows. A solution of 1.3 mg/ml of Vitamin C in the solvent is prepared in a graduated cylinder. The solution is prepared just before analysis. By successive dilutions, the absorption versus concentration calibration curve (mg/ml) is thus measured.
The concentration of Vitamin C in the supernatant obtained via extraction is determined at 243 nm using the calibration curve. […]
10 g of the preparation obtained by inclusion of CHITOXAN™—Vit. […] Samples not immediately analysed were kept frozen at −4° C.
The aliquots were analysed with the method described earlier (always using the extraction solvent). […]

coloration of the cream: an orange coloration appeared
degradation of Vitamin C: 98%
Structure (SMILES): O=C1O[C@H]([C@@H](O)CO)C(O)=C1O [free Vitamin C, Vitamin C]
